# pIC50: −log10 of the molar value.
# Key:
# [1] = target: T1, 5-hydroxytryptamine receptor 1A (Rattus norvegicus, UniProt P19327); assay type: cell membranes, CHO-K1, Membrane; conditions: cho-k1; also: in other assays of this panel Not Active means under 50% inhibition at 10 µM
# T1 sequence (P19327 whole entry): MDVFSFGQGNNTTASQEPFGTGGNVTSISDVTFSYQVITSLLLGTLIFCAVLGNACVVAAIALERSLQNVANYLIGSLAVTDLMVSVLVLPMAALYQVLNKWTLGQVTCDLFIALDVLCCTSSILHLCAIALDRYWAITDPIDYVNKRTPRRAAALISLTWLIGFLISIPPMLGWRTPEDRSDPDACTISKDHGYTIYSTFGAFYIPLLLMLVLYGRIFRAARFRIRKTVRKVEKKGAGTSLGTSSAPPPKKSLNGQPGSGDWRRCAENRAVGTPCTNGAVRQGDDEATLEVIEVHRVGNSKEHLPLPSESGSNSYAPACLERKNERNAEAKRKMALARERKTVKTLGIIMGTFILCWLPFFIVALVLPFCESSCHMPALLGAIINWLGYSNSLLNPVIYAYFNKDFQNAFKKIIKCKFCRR
# [2] = DRUGMATRIX: Calcium Channel Type L, Benzothiazepine radioligand binding (ligand: [3H] Diltiazem); assay type: cell membranes, Rattus norvegicus, Wistar, Brain, Membrane; conditions: Not Active = under 50% inhibition at 10 µM
# [3] = target: Protein kinase C alpha type (Homo sapiens, UniProt P17252); assay type: cell-based; conditions: sf9;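 also: inhibition of PKCalpha kinase activity measured in an enzyme assay with histone as the phosphorylation substrate; in other assays of this panel Not Active means under 50% inhibition at 10 µM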
# [4] = target: T2, Alpha-1A adrenergic receptor (Rattus norvegicus, UniProt P43140); experiment: DRUGMATRIX: Alpha-1A adrenergic receptor radioligand binding (ligand: prazosin); assay type: cell membranes, Wistar, Submaxillary gland, Membrane; conditions: Not Active = under 50% inhibition at 10 µM
# T2 sequence (P43140 whole entry): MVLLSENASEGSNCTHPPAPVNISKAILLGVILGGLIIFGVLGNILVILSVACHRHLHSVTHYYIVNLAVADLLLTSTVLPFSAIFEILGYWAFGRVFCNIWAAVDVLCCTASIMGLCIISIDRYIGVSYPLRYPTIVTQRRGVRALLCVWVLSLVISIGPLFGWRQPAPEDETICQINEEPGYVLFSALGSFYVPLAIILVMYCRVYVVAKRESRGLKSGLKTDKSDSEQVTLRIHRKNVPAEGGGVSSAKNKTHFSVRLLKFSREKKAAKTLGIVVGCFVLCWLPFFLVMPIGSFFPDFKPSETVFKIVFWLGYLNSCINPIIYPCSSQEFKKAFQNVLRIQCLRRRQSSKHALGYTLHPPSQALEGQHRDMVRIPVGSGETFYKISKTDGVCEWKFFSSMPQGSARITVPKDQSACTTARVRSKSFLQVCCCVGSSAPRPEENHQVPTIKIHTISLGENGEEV
# [5] = target: cGMP-specific 3',5'-cyclic phosphodiesterase (Homo sapiens, UniProt O76074); experiment: DRUGMATRIX: Phosphodiesterase PDE5 enzyme inhibition (substrate: [3H]cGMP + cGMP); assay type: tissue-based, Platelet; conditions: platelet; Not Active = under 50% inhibition at 10 µM
# [6] = target: C-C chemokine receptor type 5 (Homo sapiens, UniProt P51681); assay type: cell membranes, Membrane; conditions: hek293; also: in other assays of this panel Not Active means under 50% inhibition at 10 µM
# Chain of C-C chemokine receptor type 5 (P51681 whole entry): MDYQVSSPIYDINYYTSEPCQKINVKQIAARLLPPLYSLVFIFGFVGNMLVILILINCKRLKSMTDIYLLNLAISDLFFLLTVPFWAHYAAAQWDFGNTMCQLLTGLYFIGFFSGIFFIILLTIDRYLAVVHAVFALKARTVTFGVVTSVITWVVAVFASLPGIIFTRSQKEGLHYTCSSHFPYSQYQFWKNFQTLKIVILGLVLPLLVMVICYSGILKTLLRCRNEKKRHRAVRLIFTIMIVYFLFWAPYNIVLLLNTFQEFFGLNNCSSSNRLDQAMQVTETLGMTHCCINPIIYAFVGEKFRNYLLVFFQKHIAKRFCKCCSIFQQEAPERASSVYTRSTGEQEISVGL
# [7] = target: Vasopressin V1a receptor (Homo sapiens, UniProt P37288); assay type: cell membranes, Membrane; conditions: hek293; also: in other assays of this panel Not Active means under 50% inhibition at 10 µM
# Chain of Vasopressin V1a receptor (P37288 whole entry): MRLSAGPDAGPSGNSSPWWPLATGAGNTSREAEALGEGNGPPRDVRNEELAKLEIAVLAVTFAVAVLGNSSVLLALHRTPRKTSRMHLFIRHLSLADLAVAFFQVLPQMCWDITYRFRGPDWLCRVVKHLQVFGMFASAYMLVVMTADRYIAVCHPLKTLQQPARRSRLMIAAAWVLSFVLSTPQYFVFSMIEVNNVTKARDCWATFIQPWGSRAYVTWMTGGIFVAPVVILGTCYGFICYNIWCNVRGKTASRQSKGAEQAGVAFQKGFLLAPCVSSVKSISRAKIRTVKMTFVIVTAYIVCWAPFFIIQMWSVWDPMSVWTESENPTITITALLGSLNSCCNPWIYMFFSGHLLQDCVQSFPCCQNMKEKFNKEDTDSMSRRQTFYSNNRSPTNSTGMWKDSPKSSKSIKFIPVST
# [8] = target: T3, Cathepsin G (Homo sapiens, UniProt P08311); assay type: tissue-based; conditions: neutrophil
# T3 sequence (P08311 whole entry): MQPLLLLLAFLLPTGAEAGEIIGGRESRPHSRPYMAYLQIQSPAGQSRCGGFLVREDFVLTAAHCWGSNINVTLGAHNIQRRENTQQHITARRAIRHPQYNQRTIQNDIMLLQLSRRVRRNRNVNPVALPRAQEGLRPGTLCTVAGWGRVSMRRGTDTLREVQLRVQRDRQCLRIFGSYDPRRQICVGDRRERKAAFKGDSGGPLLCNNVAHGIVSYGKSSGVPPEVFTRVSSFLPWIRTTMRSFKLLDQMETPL
# [9] = target: Sodium-dependent dopamine transporter (Homo sapiens, UniProt Q01959); experiment: DRUGMATRIX: Dopamine Transporter radioligand binding (ligand: [125I] RTI-55); assay type: cell membranes, CHO-K1, Membrane; conditions: cho-k1; Not Active = under 50% inhibition at 10 µM
# Chain of Sodium-dependent dopamine transporter (Q01959 whole entry): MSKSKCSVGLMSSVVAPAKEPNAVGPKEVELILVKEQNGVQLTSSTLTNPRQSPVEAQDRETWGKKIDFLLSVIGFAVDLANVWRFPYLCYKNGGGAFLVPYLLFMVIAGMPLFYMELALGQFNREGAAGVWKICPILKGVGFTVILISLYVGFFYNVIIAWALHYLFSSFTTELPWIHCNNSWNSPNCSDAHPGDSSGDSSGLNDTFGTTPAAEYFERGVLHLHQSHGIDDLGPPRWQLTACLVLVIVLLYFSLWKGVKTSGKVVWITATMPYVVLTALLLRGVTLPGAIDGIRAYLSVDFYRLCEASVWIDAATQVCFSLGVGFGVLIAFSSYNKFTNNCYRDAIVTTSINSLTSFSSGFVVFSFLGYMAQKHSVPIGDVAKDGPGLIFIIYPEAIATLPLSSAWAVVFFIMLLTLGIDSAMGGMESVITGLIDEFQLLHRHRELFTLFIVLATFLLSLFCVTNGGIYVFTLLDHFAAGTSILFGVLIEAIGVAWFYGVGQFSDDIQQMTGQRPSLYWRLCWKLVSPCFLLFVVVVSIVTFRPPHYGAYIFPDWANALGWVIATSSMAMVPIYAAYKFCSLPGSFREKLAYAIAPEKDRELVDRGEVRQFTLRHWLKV
# [10] = target: Histamine H2 receptor (Homo sapiens, UniProt P25021); assay type: cell membranes, CHO-K1, Membrane; conditions: cho-k1; also: in other assays of this panel Not Active means under 50% inhibition at 10 µM
# Chain of Histamine H2 receptor (P25021 whole entry): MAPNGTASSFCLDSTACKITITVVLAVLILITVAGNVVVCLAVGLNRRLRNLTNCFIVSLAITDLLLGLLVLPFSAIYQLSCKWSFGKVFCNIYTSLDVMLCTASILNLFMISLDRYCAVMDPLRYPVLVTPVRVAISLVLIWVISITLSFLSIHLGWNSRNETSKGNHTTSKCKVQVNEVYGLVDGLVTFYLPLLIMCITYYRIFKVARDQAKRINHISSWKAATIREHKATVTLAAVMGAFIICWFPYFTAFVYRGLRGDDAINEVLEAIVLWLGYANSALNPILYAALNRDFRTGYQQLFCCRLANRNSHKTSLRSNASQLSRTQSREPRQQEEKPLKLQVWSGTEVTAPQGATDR
# [11] = DRUGMATRIX: ATPase, Na+/K+ enzyme inhibition (substrate: ATP); assay type: tissue-based, Sus scrofa, Heart; conditions: Not Active = under 50% inhibition at 10 µM
# [12] = target: Tyrosine-protein kinase Fyn (Homo sapiens, UniProt P06241); experiment: biochemical; assay type: cell-based, Insect cells; conditions: insect cells; for pIC50: read-out: IC50
# Chain of Tyrosine-protein kinase Fyn (P06241 whole entry): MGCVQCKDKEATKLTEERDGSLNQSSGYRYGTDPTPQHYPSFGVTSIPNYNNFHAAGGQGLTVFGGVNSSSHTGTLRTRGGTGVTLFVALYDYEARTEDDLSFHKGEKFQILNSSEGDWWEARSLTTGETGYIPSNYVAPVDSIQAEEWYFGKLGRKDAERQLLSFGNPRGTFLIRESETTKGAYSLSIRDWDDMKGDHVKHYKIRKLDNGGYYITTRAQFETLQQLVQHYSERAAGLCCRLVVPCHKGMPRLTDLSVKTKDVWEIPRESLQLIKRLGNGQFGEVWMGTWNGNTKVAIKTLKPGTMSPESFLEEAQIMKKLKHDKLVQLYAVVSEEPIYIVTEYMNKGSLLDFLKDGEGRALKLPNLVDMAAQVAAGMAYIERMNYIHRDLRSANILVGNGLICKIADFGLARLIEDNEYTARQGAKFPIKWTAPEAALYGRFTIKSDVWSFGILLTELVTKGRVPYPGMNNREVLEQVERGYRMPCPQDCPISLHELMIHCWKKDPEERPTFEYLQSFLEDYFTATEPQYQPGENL
# [13] = DRUGMATRIX: beta-Lactamase enzyme inhibition (substrate: Nitrocefin); design: species or system Bacillus cereus; conditions: Not Active = under 50% inhibition at 10 µM
# [14] = target: T4, Alpha-1D adrenergic receptor (Homo sapiens, UniProt P25100); assay type: cell membranes, HEK293, Membrane; conditions: hek293; also: in other assays of this panel Not Active means under 50% inhibition at 10 µM
# T4 sequence (P25100 whole entry): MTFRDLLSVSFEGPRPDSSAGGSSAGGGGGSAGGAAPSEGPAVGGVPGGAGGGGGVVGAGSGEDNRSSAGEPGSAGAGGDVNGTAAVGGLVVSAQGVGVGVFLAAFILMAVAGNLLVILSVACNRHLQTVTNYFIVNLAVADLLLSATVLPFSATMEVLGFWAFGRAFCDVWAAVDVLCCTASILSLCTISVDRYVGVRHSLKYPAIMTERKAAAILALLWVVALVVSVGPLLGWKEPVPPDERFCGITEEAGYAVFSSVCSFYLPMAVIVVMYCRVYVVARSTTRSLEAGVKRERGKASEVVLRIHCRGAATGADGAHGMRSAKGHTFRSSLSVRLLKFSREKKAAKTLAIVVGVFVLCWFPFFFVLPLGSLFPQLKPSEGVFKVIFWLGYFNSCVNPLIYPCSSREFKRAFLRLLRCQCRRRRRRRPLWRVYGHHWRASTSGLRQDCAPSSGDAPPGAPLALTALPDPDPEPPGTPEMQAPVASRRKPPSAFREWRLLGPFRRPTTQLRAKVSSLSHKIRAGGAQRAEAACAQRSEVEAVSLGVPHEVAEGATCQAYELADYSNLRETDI
Substance,IC50 [1],Ki [1],IC50 [2],Ki [2],IC50 [3],Ki [3],IC50 [4],Ki [4],IC50 [5],Ki [5],IC50 [6],Ki [6],IC50 [7],Ki [7],IC50 [8],Ki [8],IC50 [9],Ki [9],IC50 [10],Ki [10],also measured
CARBOPLATIN,Not Active,Not Active,Not Active,Not Active,Not Active,Not Active,Not Active,Not Active,Not Active,Not Active,Not Active,Not Active,Not Active,Not Active,Not Active,Not Active,Not Active,Not Active,Not Active,Not Active,IC50 [11]: Not Active; Ki [11]: Not Active; IC50 [12]: Not Active; Ki [12]: Not Active; IC50 [13]: Not Active; Ki [13]: Not Active; IC50 [14]: Not Active; Ki [14]: Not Active
CISPLATIN,Not Active,Not Active,Not Active,Not Active,Not Active,Not Active,Not Active,Not Active,Not Active,Not Active,Not Active,Not Active,Not Active,Not Active,Not Active,Not Active,Not Active,Not Active,Not Active,Not Active,pIC50 ([11]; read-out: IC50): 5.03; pIC50 [12]: 5.32; IC50 [13]: Not Active; Ki [13]: Not Active; IC50 [14]: Not Active; Ki [14]: Not Active
GOLD SODIUM THIOMALATE,Not Active,Not Active,Not Active,Not Active,Not Active,Not Active,Not Active,Not Active,Not Active,Not Active,Not Active,Not Active,Not Active,Not Active,Not Active,Not Active,Not Active,Not Active,Not Active,Not Active,IC50 [11]: Not Active; Ki [11]: Not Active; pIC50 [12]: 6.09; IC50 [13]: Not Active; Ki [13]: Not Active; IC50 [14]: Not Active; Ki [14]: Not Active
OXALIPLATIN,Not Active,Not Active,Not Active,Not Active,Not Active,Not Active,Not Active,Not Active,Not Active,Not Active,Not Active,Not Active,Not Active,Not Active,Not Active,Not Active,Not Active,Not Active,Not Active,Not Active,IC50 [11]: Not Active; Ki [11]: Not Active; IC50 [12]: Not Active; Ki [12]: Not Active; IC50 [13]: Not Active; Ki [13]: Not Active; IC50 [14]: Not Active; Ki [14]: Not Active
